Like-named read-outs stand apart in the source and are kept apart here.
Columns and labels:
[1] = in vivo; cited from earlier work
[2] = human, intravenous; cited from earlier work
human participants = details: cited from earlier work
[3] = Brain pharmacokinetics of co-administered DMT and DMT-d10 in male rats (IV bolus); type: in vivo, Sprague Dawley rats; details: for Brain Cmax: IV bolus 1 mg/kg each, co-dosed (Group 4)
Procedure: Experimental Design. This was a single dose study with 4 treatment groups as outlined in Table 1.
Sampling collection. PK samples (0.3 mL) were collected from the jugular vein by venepuncture into tubes containing K2EDTA anticoagulant at the following sampling times: Group 1 (IV) and Group 2 (oral) serial plasma collection at 0.083, 0.25, 0.5, 1, 3, 8 and 24 hr postdose; Group 4 (IV) composite plasma and brain collection at 0.083, 0.25, 0.5 and 1 hr postdose; Group 6 (inhalation) serial plasma collection at 0.333, 0.533, 0.833, 1.333, 3.333, 8.333 and 24.333 after start of inhalation.
Brain samples: After extraction of whole brain from the cranium, brains were rinsed, patted dry, weighed, placed into tubes and frozen on dry ice. Thereafter, they were stored at −70 […] pending analysis.
Bioanalysis. Plasma and brain homogenates were analyzed for DMT and DMT-d10 using an established LC-MS/MS assay.) Pharmacokinetic parameters were determined from the DMT and DMT-d 10 plasma and brain concentration-time profiles using commercially available software (Phoenix® WinNonlin®).

[4] = test system: head-twitch responses (HTRs); details: 1 mg/kg, intraperitoneal, rats and mice; cited from earlier work
neural oscillations = assay: Experiment 7: topographic pharmaco-EEG mapping of N2O+DMT (planned); details: healthy humans, following DMT administration
[5] = rats, intraperitoneal injection; cited from earlier work
[6] = Plasma pharmacokinetics of co-administered DMT and DMT-d10 in male rats (IV bolus, oral gavage, inhalation); details: for time of highest plasma concentration (first time point taken): IV bolus 1 mg/kg each; for time of highest plasma concentration (first time point taken) / mean residence time (MRT) after inhalation compared to IV administration: male rats; for F (bioavailability), inhalation: inhalation 14.3 (DMT) + 15.5 (DMT-d10) mg/kg, calculated from dose normalized AUC0-1 mean values vs Group 4 IV; for mean residence time (MRT) after inhalation compared to IV administration: inhalation vs IV; for AUC0-1/dose: plasma
[7] = test system: Adult Male Laboratory Mice (C57B16/J); assay: Locomotor activity (distance travelled, Ethovision) in mice; type: in vivo; details: DMT-d10 5.6 mg/kg s.c.; for Mean rank diff., total distance travelled: Dunn's multiple comparisons, Veh/Air vs. treatment, N2O 50% inhaled
[8] = test system: early growth response protein 2 (egr2); assay: RTqPCR gene expression in mouse left frontal cortex: egr2; details: 60 min treatment + 60 min room air, DMT-d10 5.6 mg/kg s.c., N2O 50% inhaled
syn1 = assay: RTqPCR gene expression in mouse left frontal cortex: syn1; type: in vivo, mice (C57B16/J); details: 60 min treatment + 60 min room air, DMT-d10 5.6 mg/kg s.c., N2O 50% inhaled
homer1 = assay: RTqPCR gene expression in mouse left frontal cortex: homer1; type: in vivo, mice (C57B16/J); details: 60 min treatment + 60 min room air, DMT-d10 5.6 mg/kg s.c., N2O 50% inhaled
c-fos = assay: RTqPCR gene expression in mouse left frontal cortex: c-fos; details: 60 min treatment + 60 min room air, DMT-d10 5.6 mg/kg s.c., N2O 50% inhaled
bdnf = assay: RTqPCR gene expression in mouse left frontal cortex: bdnf; type: in vivo, mice (C57B16/J); details: 60 min treatment + 60 min room air, DMT-d10 5.6 mg/kg s.c., N2O 50% inhaled
[9] = test system: fibroblast growth factor 2 (fgf2); assay: RTqPCR gene expression in mouse left frontal cortex: fgf2; details: 60 min treatment + 60 min room air, DMT-d10 5.6 mg/kg s.c., N2O 50% inhaled
[10] = test system: serum/glucocorticoid regulated kinase 1 (sgk1); assay: RTqPCR gene expression in mouse left frontal cortex: sgk1; details: 60 min treatment + 60 min room air, DMT-d10 5.6 mg/kg s.c., N2O 50% inhaled
[11] = molecular target: T1, serotonin 5-HT2A receptor (Mus musculus, UniProt P35363); assay: Head twitch response (HTR) in mice, DMT-d10 with or without N2O; type: in vivo, mice (C57B16/J); details: DMT-d10 5.6 mg/kg s.c.; for head twitch responses (HTRs), result in words: mice, room air or N2O 50%, first 30 minutes; for Mean rank diff., total HTRs: Dunn's multiple comparisons, Veh/Air vs. treatment, N2O 50% inhaled
T1 construct: Mice were exposed to a medium dose of the 5-HT2A agonist DMT-d10; from tissue; host or cells: living adult male C57Bl6/J mice (in vivo behavioural assay)
Procedure: Experiment 1—Effect of N2O on the pharmacodynamic effects of DMT-d10. The dose-dependent behavioral effects of N2O on DMT-d10-induced head twitch response (HTR) in mice was determined.
Rationale: The head-twitch response (HTR) is a rapid side-to-side head movement that occurs in mice and rats after the serotonin 5-HT2A receptor is activated. The HTR is widely used as a behavioral assay for 5-HT2A activation and to probe for interactions between the 5-HT2A receptor and other transmitter systems (see Halberstadt, A. L. & Geyer, M. A. Characterization of the head-twitch response induced by hallucinogens in mice: detection of the behavior based on the dynamics of head movement. Psychopharmacology (Berl) 227, 10.1007/s00213-013-3006-z (2013); Canal, C. E. & Morgan, D. Head-twitch response in rodents induced by the hallucinogen 2,5-dimethoxy-4-iodoamphetamine: a comprehensive history, a re-evaluation of mechanisms, and its utility as a model. Drug Test Anal 4, 556-576 (2012)).
Data analysis: The number of head twitches over the first 30 minutes was summed (0-15 minutes, 15-30 minutes intervals) and analyzed by non-parametric Kruskal Wallis test with Dunn's multiple comparison tests between groups.

[12] = IV bolus of DMT (as fumarate salt) 0.05-0.4 mg/kg
[13] = brain, male rats, IV bolus 1 mg/kg each (Group 4)
[14] = Inhalation 14.3 (DMT) / 15.5 (DMT-d10) mg/kg

T1 sequence (P35363 whole entry): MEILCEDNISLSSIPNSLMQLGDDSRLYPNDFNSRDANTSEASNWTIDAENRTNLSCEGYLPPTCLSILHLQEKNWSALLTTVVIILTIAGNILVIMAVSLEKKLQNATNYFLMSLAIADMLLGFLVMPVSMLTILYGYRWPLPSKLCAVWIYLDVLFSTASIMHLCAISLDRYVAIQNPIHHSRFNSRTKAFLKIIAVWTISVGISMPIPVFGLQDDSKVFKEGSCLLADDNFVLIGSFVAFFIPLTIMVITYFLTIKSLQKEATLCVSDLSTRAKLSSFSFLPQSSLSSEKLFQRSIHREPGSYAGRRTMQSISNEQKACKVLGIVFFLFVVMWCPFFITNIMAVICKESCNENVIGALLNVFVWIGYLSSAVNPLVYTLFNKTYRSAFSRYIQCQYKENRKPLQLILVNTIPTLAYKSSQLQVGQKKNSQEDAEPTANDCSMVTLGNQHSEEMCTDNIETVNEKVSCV

| Structure (SMILES) | elimination half-life [1] [min] | Brain AUC0-t [3, 13] [ng·h/g] | Brain Cmax ([3]; brain, male rats) [ng/g] | time of highest plasma concentration (first time point taken) [6] [h] | F (bioavailability), inhalation [6] [%] | mean residence time (MRT) after inhalation compared to IV administration [6] | AUC0-1/dose [6, 14] | AUC0-1/dose ([6]; Intravenous 1 mg/kg each) | AUC0-1/dose ([6]; Oral 10 mg/kg each) | Mean rank diff., total distance travelled ([7]; minutes 0-15) | Mean rank diff., total distance travelled ([7]; minutes 15-30) | egr2 gene expression, percentage change compared to control (Veh/Air), % mean [8] [%] | syn1 gene expression, percentage change compared to control (Veh/Air), % mean (syn1) [%] | homer1 gene expression, percentage change compared to control (Veh/Air), % mean (homer1) [%] | c-fos gene expression, percentage change compared to control (Veh/Air), % mean (c-fos) [%] | bdnf gene expression, percentage change compared to control (Veh/Air), % mean (bdnf) [%] | fgf2 gene expression, percentage change compared to control (Veh/Air), % mean [9] [%] | sgk1 gene expression, percentage change compared to control (Veh/Air), % mean [10] [%] | head twitch responses (HTRs), result in words [11] | Mean rank diff., total HTRs ([11]; minutes 0-15) | also measured |
| --- | --- | --- | --- | --- | --- | --- | --- | --- | --- | --- | --- | --- | --- | --- | --- | --- | --- | --- | --- | --- | --- |
| COc1ccc2[nH]cc(CCN(C)C)c2c1 [5-MeO-DMT, 5-methoxy-N,N-dimethyltryptamine] | 12 to 19 |  |  |  |  |  |  |  |  |  |  |  |  |  |  |  |  |  |  |  |  |
| CN(C)CCc1c[nH]c2ccccc12 [DMT, N,N-dimethyltryptamine] | 12 to 19 | 1060 | 3430 | 0.083 | 16.3 | approximately 5 × | 18.2 | 112 | 1.52 |  |  |  |  |  |  |  |  |  |  |  | half-life [2]: around 15 minutes; time to peak plasma concentrations [2]: approximately 2 minutes; hallucinogenic effect (human participants; 0.1 mg/kg IV): not hallucinogenic; hallucinogenic effect (human participants; 0.2 and 0.4 mg/kg IV): nearly instantaneous onset of visual hallucinatory phenomena; time by which psycho-biological effects resolve (human participants; [12]): ≤ 30 minutes; time of peak of psycho-biological effects (human participants; [12]): 120 seconds; duration of effect of vaporized DMT (human participants; vaporized or inhaled free-base, 40-50 mg): less than 30 min; Brain AUC0-inf [3, 13]: 1070 ng·h/g; hallucinogenic potential as measured by head-twitch responses (HTRs) [4]: sub-hallucinogenic; absolute power in EEG frequency bands (neural oscillations): decreased absolute power in all frequency bands; half-life [5]: 5 to 15 min; time to be metabolized and cleared from brain, liver, and plasma [5]: ≤ 1 h |
| [2H]C([2H])([2H])N(C([2H])([2H])[2H])C([2H])([2H])C([2H])([2H])c1c[nH]c2ccccc12 [DMT-d10] |  | 931 | 1490 | 0.083 | 22.6 | approximately 5 × | 17.0 | 75.4 | 0.878 | 16.50 | 19.30 | 8.24 | 1.47 | 2.44 | 18.57 | −9.25 | 3.13 | 15.58 | modest number of HTRs | −22.65 | distance travelled (locomotor behavior), result in words ([7]; mice, room air or N2O 50%, minutes 0-15 and 15-30): travelled less distance than the vehicle/air group; improvement of brain to plasma (B/P) ratio by deuteration ([3]; DMT-d10 vs. DMT, IV 1 mg/kg, rats): approximately 30%; Mean rank diff., total HTRs ([11]; minutes 15-30): −12.80; increase of inhalation bioavailability by deuteration ([6]; DMT-d10 vs. DMT, inhalation, rats): approximately 40% |
| [N-]=[N+]=O [N2O, nitrous oxide] |  |  |  |  |  |  |  |  |  | −11.40 | −8.000 | 38.30 | 13.38 | 29.35 | 32.29 | 15.67 | 5.24 | 33.82 | attenuates DMT-d10-induced HTRs | −1.250 | Mean rank diff., total HTRs ([11]; minutes 15-30): 0.000 |

Source: patent US20260240901A1, “COMBINATION OF NITROUS OXIDE AND 5-HT2A RECEPTOR AGONISTS” (Cybin IRL Limited, priority 2022, published 2026)
